A value given as a limit tells only on which side of the number the result lay.

The EC50 is the midpoint of the concentration-response curve. The low end stands for a more potent agent, the high end for a less potent agent.

In test [1] the test system is A2058 (human metastatic melanoma cells - Rb-negative). Nature of the test: Cellular proliferation assay (CellTiter-Glo), A2058. It is filed as cell-based. As to conditions: A2058, 144 h, six days. On the procedure: (§1) Cellular proliferation assays were conducted using the following Rb-negative cancer cell lines: H69 (human small cell lung cancer—Rb-negative) cells or A2058 (human metastatic melanoma cells—Rb-negative). These cells were seeded in Costar (Tewksbury, Mass.) 3093 96 well tissue culture treated white walled/clear bottom plates. Cells were treated with the compounds of Table 1 as nine point dose response dilution series from 10 uM to 1 nM. Cells were exposed to compounds and then cell viability was determined after either four (H69) or six (A2058) days as indicated using the CellTiter-Glo® luminescent cell viability assay (CTG; Promega, Madison, Wis., United States of America) following the manufacturer's recommendations. Plates were read on BioTek (Winooski, Vt.) Syngergy2 multi-mode plate reader. The Relative Light Units (RLU) were plotted as a result of variable molar concentration and data was analyzed using Graphpad (LaJolla, Calif.) Prism 5 statistical software to determine the EC50 for each compound.
A general note: ATP-based viability assays read luminescence as a measure of living cells.

For test [2], the target named is CDK2/CyclinE (Homo sapiens (Human), UniProt P24941). Nature of the test: CDK2/CyclinE kinase assay (Nanosyn, Caliper microfluidic). It is filed as biochemical. Particulars: Table 2.
The subject of test [3] is HS68 cells (human skin fibroblast cell line (Rb-positive)). Description: G1 arrest (cellular G1 and S-phase) assay. The format is cell-based. Particulars: Homo sapiens, Hs68, HS68 cells. The procedure: For determination of cellular fractions in various stages of the cell cycle following various treatments, HS68 cells (human skin fibroblast cell line (Rb-positive)) were stained with propidium iodide staining solution and run on Dako Cyan Flow Cytometer. The fraction of cells in G0-G1 DNA cell cycle versus the fraction in S-phase DNA cell cycle was determined using FlowJo 7.2 0.2 analysis.
The compounds listed in Table 1 were tested for their ability to arrest HS68 cells at the G1 phase of the cell cycle.

Test [4] deals with H69 (human small cell lung cancer - Rb-negative) cells. Description: Cellular proliferation assay (CellTiter-Glo), H69. The format is cell-based. Particulars: NCI-H69, 96 h, four days. On the procedure:
as §1

Test [5] addresses CDK4/CyclinD1 (Homo sapiens (Human), UniProt P11802). Nature of the test: CDK4/CyclinD1 kinase assay (Nanosyn, Caliper microfluidic). It is filed as biochemical. Particulars: Table 2; read-out: CDK4/CycD1 IC50.
In test [6] the target is CDK2/CyclinA (Homo sapiens (Human), UniProt P24941). Nature of the test: CDK2/CyclinA kinase assay (Nanosyn, Caliper microfluidic). It is filed as biochemical. Particulars: Table 2. In short, it runs like this:
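Phosphorylation was read by Caliper microfluidic detection. Compounds ran as 12-point dose-responses in singlicate, with staurosporine as reference.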

Chain of CDK4/CyclinD1 (P11802 whole entry, species assumed): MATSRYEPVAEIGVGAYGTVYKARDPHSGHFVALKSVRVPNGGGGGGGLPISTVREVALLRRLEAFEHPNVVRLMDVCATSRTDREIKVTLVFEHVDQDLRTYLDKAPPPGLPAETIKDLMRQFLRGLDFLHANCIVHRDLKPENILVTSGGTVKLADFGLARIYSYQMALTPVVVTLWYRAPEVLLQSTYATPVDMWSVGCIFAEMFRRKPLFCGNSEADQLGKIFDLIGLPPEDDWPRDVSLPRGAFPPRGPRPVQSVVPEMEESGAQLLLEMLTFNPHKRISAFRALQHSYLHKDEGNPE
Chain of CDK4/CyclinD1 (P24385 whole entry partner, species assumed): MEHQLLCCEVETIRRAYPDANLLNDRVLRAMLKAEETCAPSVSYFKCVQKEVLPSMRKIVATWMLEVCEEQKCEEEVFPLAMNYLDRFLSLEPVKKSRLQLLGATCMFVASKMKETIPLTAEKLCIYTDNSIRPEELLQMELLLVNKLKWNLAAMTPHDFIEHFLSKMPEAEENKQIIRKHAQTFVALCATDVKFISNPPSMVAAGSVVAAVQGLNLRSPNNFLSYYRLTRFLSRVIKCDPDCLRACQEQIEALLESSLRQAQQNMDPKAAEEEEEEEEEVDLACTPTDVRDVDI

For `CN1CCN(C(=O)c2ccc(Nc3ncc4cc5n(c4n3)C3(CCCC3)CNC5=O)nc2)CC1` [BBB], the figures for the EC50 in test [1], in test [3] and in test [4] were above 3000 nM, 230 nM and above 3000 nM, respectively. The “Fold Selectivity (CDK2/CycE/CDK4)” value in test [2] is listed as 68. Also, the IC50 in test [2] (read-out: CDK2/CycE IC50) was determined as 187 nM; in test [5], 2.8 nM; in test [6] (read-out: CDK2/CycA IC50), 85 nM. Also, the “Fold Selectivity (CDK2/CycA/CDK4)” value in test [6] was 31.

The values are drawn from patent US9464092B2, “Transient protection of normal cells during chemotherapy” (G1 Therapeutics, Inc., priority 2013, dated 2016).
